Here are results for seven compounds from ChEMBL document CHEMBL4257554, “On the inhibition of capsaicin response in dorsal root ganglion neurons by nobilamide B and analogues: a structure-activity relationship study” (Medchemcomm, 2018).

Non-standard residues stand in square brackets, D forms with d. Residues, ends and D or L forms follow the SMILES beside them. *: point of attachment. d(aThr) = C[C@@H](O)[C@@H](N)C(=O)O; Dhb = C/C=C(\N)C(=O)O; Propionyl = CCC(=O)*

The target of this assay is Transient receptor potential cation channel subfamily V member 1 (Mus musculus) (UniProt Q704Y3). Nature of the assay: Antagonist activity at TRPV1 channel in mouse DRG neurons assessed as inhibition of capsaicin-induced calcium accumulation at 300 uM incubated for 6 mins by Fura-2-AM dye based fluorescence assay relative to control.
Sequence of Transient receptor potential cation channel subfamily V member 1 (Mus musculus) (Q704Y3 whole entry): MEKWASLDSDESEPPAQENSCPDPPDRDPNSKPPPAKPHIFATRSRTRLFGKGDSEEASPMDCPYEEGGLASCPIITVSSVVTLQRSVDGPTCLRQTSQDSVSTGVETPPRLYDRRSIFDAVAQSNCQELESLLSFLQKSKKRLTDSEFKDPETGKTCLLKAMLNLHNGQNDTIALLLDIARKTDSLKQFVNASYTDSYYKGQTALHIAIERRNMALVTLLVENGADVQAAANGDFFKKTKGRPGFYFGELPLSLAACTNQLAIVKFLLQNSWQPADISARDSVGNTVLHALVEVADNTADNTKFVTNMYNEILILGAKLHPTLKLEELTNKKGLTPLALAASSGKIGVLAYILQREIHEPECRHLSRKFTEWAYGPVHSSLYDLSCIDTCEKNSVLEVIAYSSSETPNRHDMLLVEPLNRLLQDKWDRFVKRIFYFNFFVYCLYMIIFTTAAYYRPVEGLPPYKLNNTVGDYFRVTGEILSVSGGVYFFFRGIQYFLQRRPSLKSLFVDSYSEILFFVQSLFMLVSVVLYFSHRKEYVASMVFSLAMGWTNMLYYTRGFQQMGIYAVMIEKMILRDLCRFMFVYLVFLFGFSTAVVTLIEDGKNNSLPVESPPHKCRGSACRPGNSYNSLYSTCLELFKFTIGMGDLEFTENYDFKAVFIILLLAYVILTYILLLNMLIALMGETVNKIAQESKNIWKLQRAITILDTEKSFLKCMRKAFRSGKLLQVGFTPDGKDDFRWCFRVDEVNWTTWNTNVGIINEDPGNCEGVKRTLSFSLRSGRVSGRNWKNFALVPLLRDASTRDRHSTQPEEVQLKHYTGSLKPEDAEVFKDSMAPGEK
Take `C/C=C(\NC(=O)[C@H](C)NC(=O)[C@@H](NC(=O)[C@H](C)NC(=O)[C@H](Cc1ccccc1)NC(=O)[C@@H](CC(C)C)NC(=O)[C@@H](Cc1ccccc1)NC(=O)CC)C(C)C)C(=O)O`: the inhibition is 5.38%.

Regarding `C/C=C(\NC(=O)[C@H](C)NC(=O)[C@@H](NC(=O)[C@H](NC(=O)[C@H](Cc1ccccc1)NC(=O)[C@@H](CC(C)C)NC(=O)[C@H](C)NC(=O)CC)[C@@H](C)O)C(C)C)C(=O)O`, the inhibition came out at 6.47%.

As for `C/C=C(\NC(=O)[C@H](C)NC(=O)[C@@H](NC(=O)[C@H](NC(=O)[C@H](C)NC(=O)[C@@H](CC(C)C)NC(=O)[C@@H](Cc1ccccc1)NC(=O)CC)[C@@H](C)O)C(C)C)C(=O)O`, the inhibition worked out at 23.5%.

`CCC(=O)N[C@H](Cc1ccccc1)C(=O)N[C@H](CC(C)C)C(=O)N[C@@H](Cc1ccccc1)C(=O)N[C@@H](C(=O)N[C@H](C(=O)N[C@@H](C)C(=O)N[C@@H](C)C(=O)O)C(C)C)[C@@H](C)O`: the inhibition is 35.6%.

Turning to `C/C=C(\NC(=O)[C@H](C)NC(=O)[C@@H](NC(=O)[C@H](NC(=O)[C@H](Cc1ccccc1)NC(=O)[C@@H](CC(C)C)NC(=O)[C@@H](Cc1ccccc1)NC(=O)CC)[C@@H](C)O)C(C)C)C(=O)O` (Propionyl-[dF][dL]F[d(aThr)]VA[Dhb]-OH), the inhibition worked out at 33.6%.

For `C/C=C(\NC(=O)[C@H](C)NC(=O)[C@@H](NC(=O)[C@H](NC(=O)[C@H](Cc1ccccc1)NC(=O)[C@H](C)NC(=O)[C@@H](Cc1ccccc1)NC(=O)CC)[C@@H](C)O)C(C)C)C(=O)O`, the inhibition was 3.27%.

For the compound `C/C=C(\NC(=O)[C@H](C)NC(=O)[C@H](C)NC(=O)[C@H](NC(=O)[C@H](Cc1ccccc1)NC(=O)[C@@H](CC(C)C)NC(=O)[C@@H](Cc1ccccc1)NC(=O)CC)[C@@H](C)O)C(=O)O`, the inhibition came out at 27.8%.
